Data reported in paper PMC7144234, “Antiproliferative chromone derivatives induce K562 cell death through endogenous and exogenous pathways” (Journal of Enzyme Inhibition and Medicinal Chemistry, 2020).

Assays:
Bad = assay: Human Apoptosis Array kit, Bad expression in K562 cells; assay type: cell-based; details: K562, 2 µM, 24 h
Description: (§1) The relative expression levels of 35 apoptosis-related proteins were evaluated using Human Apoptosis Array kit (R&D Systems, Abingdon, UK) in K562 cells. Proteins were extracted according to the manufacturer’s protocol from cells treated for 24 h with compound 15a (2 µM). The tool is fast, sensitive and economical, with 2.0 ml of array buffer added to each well, followed by array, The capture antibodies are retained in their specific locations, then incubated, transferred, diluted, added to Streptavidin-HRP, shaken. The platform shaker was incubated on the plate for 30 min, then the membrane was removed, 1 ml of the prepared Chemi Reagent Mix was evenly pipetted onto each membrane, incubated, the excess Chemi Reagent Mix was removed, and the membrane was placed in a self-developing film cartridge, exposed to X-ray film for 1–10 min. The positive signals seen on developed film can be quickly identified by placing the transparency overlay template on the array image and aligning it with the pairs of reference spots in three corners of each array. Creating templates, exporting files, averaging signals, finding backgrounds, comparing corresponding signals on the array to determine relative changes in apoptosis-related protein levels.

HtrA2 = assay: Human Apoptosis Array kit, HtrA2 expression in K562 cells; assay type: cell-based; details: K562, 2 µM, 24 h
Description: as §1

K562 = assay: MTT antiproliferative assay, K562; assay type: cell-based, human; details: 72 h, chronic myeloid leukaemia K562
Description: (§2) The colorimetric MTT (3-(4,5-dimethylthiazol-2-yl)-2,5-diphenyltetrazolium bromide) assay was used to measure the cell viability of all of the above cell lines following treatment with target hybrids. Exponentially growing cells were added into 96-well plates at a concentration of 2000–4000 cells per well. Following attachment the cells were treated with varying concentrations (64, 16, 4, 1, 0.25, 0.0625 and 0.015625 µM) of target compounds in media and were kept for incubation for 72 h. MTT (20 µL, 5 mg/mL in PBS) was added to each well and the cells were incubated for another 3 h at 37 °C. Then the medium was removed, followed by the addition of 150 µL DMSO for each well. After that, the absorbance (OD) data of each well at 570 nm wavelength were measured by a Microplate Reader (BIO-RAD), and half inhibition rates (IC50) were calculated[59]^,[60].

Bax = assay: Human Apoptosis Array kit, Bax expression in K562 cells; assay type: cell-based; details: K562, 2 µM, 24 h
Description: as §1

K562 cells [1] = assay: Cell cycle analysis (PI staining, flow cytometry); assay type: cell-based, human; details: 72 h
Description: The cells in the logarithmic growth phase were digested into six-well plates. The next day, cells were treated with different concentrations (0, 0.8, 1.6, 3.2 µM) of compound 15a. After 72 h, 5 × 10^5 cells were collected and fixed with a volume fraction of 70% ethanol for 2 h (or overnight), washed the fixative with PBS, added 100 µL RNase A in 37 °C water bath for 30 min, and finally 400 µL of PI stain was added, after 30 min under the dark at 4 °C, the cytometry was used to record the red fluorescence at the excitation wavelength of 488 nm, and the cell cycle distribution of the DNA content was evaluated.

K562 cells [2] = assay: Hoechst 33258 staining, morphological analysis; assay type: cell-based, human
Description: K562 cells were incubated with different concentrations (0, 0.8, 1.6 and 3.2 µM) of 15a for a period of time, the medium containing the compound was removed, the cell smear was naturally dried, and immersed in 4% paraformaldehyde for 30 min or overnight to improve cell permeability, then soaked in PBS, washed for three times, added appropriate amount of Hoechst 33258 staining solution, fully covered, allowed to stand at room temperature for 10 min, finally immersed in PBS again, washed three times and sealed. Anti-fluorescence quenching after the liquid was sealed, the staining results were observed under a fluorescence microscope.

K562 cells [3] = assay: Cell apoptosis assay (Annexin V-FITC/PI, flow cytometry); assay type: cell-based, human; details: 72 h
Description: […] 500 µL of binding buffer suspension cells, 5 µL of Annexin V-FITC, and 5 µL of PI were mixed incubated at room temperature, protected from light, and reacted for 5–15 min, then analysed with flow cytometry instrument to detect cell apoptosis.

PBMC = assay: MTT assay, peripheral blood mononuclear cells; assay type: cell-based, human; details: 72 h
Description: as §2

Catalase = assay: Human Apoptosis Array kit, catalase expression in K562 cells; assay type: cell-based; details: K562, 2 µM, 24 h
Description: as §1

B16 = assay: MTT antiproliferative assay, B16; assay type: cell-based; details: 72 h, melanoma B16
Description: as §2

L-02 = assay: MTT assay, normal hepatic L-02 cell line; assay type: cell-based; details: 72 h, human normal hepatic L-02 cell line
Description: as §2

Claspin = assay: Human Apoptosis Array kit, claspin expression in K562 cells; assay type: cell-based; details: K562, 2 µM, 24 h
Description: as §1

MCF-7 = assay: MTT antiproliferative assay, MCF-7; assay type: cell-based, human; details: 72 h, breast carcinoma MCF-7
Description: as §2

HepG2 = assay: MTT antiproliferative assay, HepG2; assay type: cell-based, human; details: 72 h, hepatoma HepG2
Description: as §2

HCT-116 = assay: MTT antiproliferative assay, HCT-116; assay type: cell-based, human; details: 72 h, colorectal carcinoma HCT-116
Description: as §2

IC50 (K562): 1.61 ± 0.18 µM | IC50 (B16): 9.72 ± 0.52 µM | IC50 (MCF-7): 13.7 ± 0.33 µM | IC50 (HepG2): 4.86 ± 0.39 µM | IC50 (HCT-116): 6.74 ± 0.9 µM
Substance: 4-((1-(6-Methoxy-4-oxo-4H-chromene-3-carboxamido)propan-2-yl)oxy)-3-(phenylsulfonyl)-1,2,5-oxadiazole 2-oxide [15a]
expression of Bad compared to the control (Bad): increased expression | expression level of HtrA2 (HtrA2): increased the expression levels | expression of Bax compared to the control (Bax): increased expression | cells in G1 phase (K562 cells [1]; K562, 0.8 µM): 48.84% | cells in G2 phase (K562 cells [1]; K562, 0.8 µM): 10.71% | cells in S phase (K562 cells [1]; K562, 0.8 µM): 40.45% | cells in G1 phase (K562 cells [1]; K562, 1.6 µM): 41.43% | cells in G2 phase (K562 cells [1]; K562, 1.6 µM): 11.89% | cells in S phase (K562 cells [1]; K562, 1.6 µM): 46.68% | cells in G1 phase (K562 cells [1]; K562, 3.2 µM): 36.21% | cells in G2 phase (K562 cells [1]; K562, 3.2 µM): 13.51% | cells in S phase (K562 cells [1]; K562, 3.2 µM): 50.28% | cell morphology after Hoechst 33258 staining (K562 cells [2]; K562, 3.2 µM): cell membranes were ruptured and the nuclei were fragmented | cell morphology after Hoechst 33258 staining (K562 cells [2]; K562, 0.8 and 1.6 µM): typical apoptotic morphology | apoptotic rate (K562 cells [3]; K562, 0.8 µM): 16.28% | apoptotic rate (K562 cells [3]; K562, 1.6 µM): 20.56% | apoptotic rate (K562 cells [3]; K562, 3.2 µM): 51.87% | IC50 (PBMC): > 50 µM | expression of Catalase (Catalase): up-regulated | IC50 (L-02): 36.9 ± 0.62 µM | expression of Claspin (Claspin): increased
